Entries after “also recorded” stand apart in the source; their conditions may differ.
Legend:
DrAMPCs [1] = assay: Surface coatings: myosin heavy chain expression and cell attachment (image fluorescence quantification); assay type: cell-based, Drosophila melanogaster; conditions: cultures on coated surface
DrAMPCs [2] = assay: Cell elongation and differentiation after hormone treatment (image analysis, immunostaining); assay type: cell-based, Drosophila melanogaster
Procedure: (§1) Drosophila melanogaster adult muscle progenitor-like cells (DrAMPCs) were acquired from Kerafast (Boston, Mass.) (#EF4006). The cell line was originally immortalized by the Persimmon Research Group at Harvard University, and was derived from primary embryo cultures in which Gal4 drives Ras^V12 and GFP expression. DrAMPCs were cultured in insect growth media composed of Schneider's Insect Medium from Sigma-Aldrich (St. Louis, Mo.) (#S0146) supplemented with 10% heat inactivated fetal bovine serum from ThermoFisher (Waltham, Mass.) (#16140) and 1% penicillin/streptomycin (ThermoFisher, #15140122). For serum-free growth media experiments, media consisted of Ex-Cell 405 Serum-Free Medium (Sigma-Aldrich, #14405C) and 1% penicillin/streptomycin. For static culture, DrAMPCs were cultured in either plasma-treated flasks (ThermoFisher, #156499) or ultra-low attachment flasks (Corning, N.Y.) (#CLS3814) and incubated at 19° C. in a temperature-controlled incubator from VWR (Radnor, Pa.) (#89511-416). For suspension culture, DrAMPCs were cultured in shaker flasks (ThermoFisher, #4115-0250) on an orbital shaker set at 40 rpm at room temperature. When indicated, dextran sulfate (Sigma-Aldrich, #67578) was supplemented to serum-free media by dissolution and sterile filtration with 0.2 μm bottle top filters (ThermoFisher, #595-3320). For hormone treatment and differentiation experiments, DrAMPCs were cultured in insect growth media or serum-free media supplemented with methoprene (Sigma-Aldrich, #33375) and/or 20-hydroxyecdysone (Sigma-Aldrich, #H5142) which were dissolved in DMSO (Sigma-Aldrich, #D8418). DrAMPCs were seeded at 75,000 or 300,000 cells/cm^2 in 2D culture and 1,000,000 cells/sponge in 3D culture. For mammalian controls, C2C12 cells from ATTC (Manassas, Va.) (#CRL-1772) were cultured in growth media composed of DMEM+Glutamax (ThermoFisher, #10566) supplemented with 10% heat inactivated fetal bovine serum and 1% penicillin/streptomycin. C2C12s were seeded at 10,000 cells/cm^2.
Cell viability was determined by a Live/Dead staining kit (ThermoFisher, #L3224). At time of assay, media was gently aspirated from the cell surface and cells were rinsed with phosphate buffered saline (PBS) (ThermoFisher, #14040133). Cells were stained with 2 μM calcein AM and 4 μM EthD-1 solution for 30 minutes at room temperature in the dark and imaged with a fluorescence microscope. For immunocytochemical staining, media was gently aspirated from cells and the cell surface was rinsed with PBS. Cells were fixed with 4% paraformaldehyde from Fisher Scientific (Hampton, N.H.) (#J61899AK) for 10 minutes and rinsed with PBS. Cells were then permeabilized with 0.5% Triton X-100 and rinsed with blocking buffer consisting of phosphate buffered saline, 5% fetal bovine serum and 0.05% sodium azide. Cells were incubated in blocking buffer for 15 minutes before addition of primary antibody, then incubated at 4° C. overnight. Cells were rinsed and incubated with fresh blocking buffer for 15 minutes before addition of secondary antibody, then incubated in the dark on ice for 1 hour. Again, cells were rinsed and incubated with fresh blocking buffer for 15 minutes before counterstaining and mounting with DAPI mounting medium from Abcam (Cambridge, UK) (#ab104139). Detailed antibody information is available in Table 5. Fluorescence imaging was performed on a Keyence microscope (Osaka, Japan) (#BZ-X700). Confocal imaging was performed on a TCS SP8 microscope from Leica Microsystems (Wetzlar, Germany).

DrAMPCs [3] = assay: Adhesion and differentiation on chitosan sponge scaffolds; assay type: cell-based, Drosophila melanogaster
Procedure: Mushroom chitosan of 100 kDa molecular weight from Chinova Bioworks (New Brunswick, Canada) was dissolved in 2% acetic acid in distilled water for 12 hours at room temperature on a stir plate. The chitosan solution was centrifuged at 16,880×g for 3 hours to remove undissolved particles and diluted in distilled water to the desired concentrations (1%, 2% and 4%). Concentrations were verified by drying small volumes at 60° C. for 2 hours and calculating dry weight/wet weight. To prepare films, the solution was cast on plastic and allowed to dry overnight. To prepare sponges, the solution was poured into PDMS molds with an aluminum sheet separating one side of the mold from a separate chamber. Liquid nitrogen was poured into the chamber opposite the chitosan solution and continually replenished until the entire solution had frozen across the temperature gradient. Samples were then lyophilized for 48 hours. Prior to sterilization and seeding, films and sponges were submerged in 1M sodium carbonate for 1 hour at room temperature and subsequently rinsed three times in distilled water for 20 minutes and soaked in distilled water overnight. For hydrated mechanical analysis, sectioned sponges were soaked in PBS prior to testing.
Sponges used for seeding were cylinders 6 mm in diameter and 1.5 mm thick. […]

[4] = system: Manduca sexta embryonic precursor cell (Ms-EPCs); assay: Ms-EPC culture and differentiation; assay type: cell-based
DrAMPCs [5] = assay: CyQuant proliferation assay after hormone treatment; assay type: cell-based, Drosophila melanogaster
Procedure: as §1, with “For mammalian controls, C2C12 cells from ATTC (Manassas, Va.) (#CRL-1772) were cultured in growth media composed of DMEM+Glutamax (ThermoFisher, #10566) supplemented with 10% heat inactivated fetal bovine serum and 1% penicillin/streptomycin. C2C12s were seeded at 10,000 cells/cm^2.” left out
Cell adhesion to tissue culture plastic and chitosan films was quantified via a MTS Assay from Promega (Madison, Wis.) (#G3582) by measuring absorbance after 2.5-hour incubation with the MTS reagent. Cell proliferation and viability were measured by fluorescence, Live/Dead kit (ThermoFisher, #L3224) stained image analysis or CyQuant proliferation assays (ThermoFisher, #C7026). For fluorescence measurements, GFP-expressing DrAMPCs were imaged on a fluorescence microscope over the course of a week using the automated multi-point capture feature. Fluorescence was quantified on Fiji software and normalized to the values determined at the first time-point. For Live/Dead stained image analysis, cells were stained following the kit protocols and imaged on a fluorescence microscope. The images were analyzed with Fiji to quantify the viability and total cell population over time. […] Microplate measurements were performed on a SpectraMax M2 reader from Molecular Devices (San Jose, Calif.). Cell populations were determined from a standard curve.

[6] = average adult; cited from earlier work
DrAMPCs [7] = assay: Agitated suspension culture in shaker flasks (aggregation); assay type: cell-based, Drosophila melanogaster; conditions: 100 μg/mL dextran sulfate in EC405, shaker flasks
Procedure: It was noted that when static culture flasks became over-confluent, the cells continued to grow in three-dimensional aggregates or in suspension. […] The cells were then transitioned from static suspension culture to agitated suspension culture with the use of shaker flasks incubated at room temperature. In agitated suspension, the cells formed aggregates (FIG. 1G). […] After expansion in suspension culture and removal of dextran sulfate, the cells transitioned back to adherent monolayers and retained a myoblast-like morphology.
Drosophila melanogaster adult muscle progenitor-like cells (DrAMPCs) were acquired from Kerafast (Boston, Mass.) (#EF4006). The cell line was originally immortalized by the Persimmon Research Group at Harvard University, and was derived from primary embryo cultures in which Gal4 drives Ras^V12 and GFP expression. DrAMPCs were cultured in insect growth media composed of Schneider's Insect Medium from Sigma-Aldrich (St. Louis, Mo.) (#S0146) supplemented with 10% heat inactivated fetal bovine serum from ThermoFisher (Waltham, Mass.) (#16140) and 1% penicillin/streptomycin (ThermoFisher, #15140122). For serum-free growth media experiments, media consisted of Ex-Cell 405 Serum-Free Medium (Sigma-Aldrich, #14405C) and 1% penicillin/streptomycin. […]

DrAMPCs [8] = assay: Adhesion and growth on mushroom chitosan films (MTS assay, fluorescence microscopy); assay type: cell-based, Drosophila melanogaster; conditions: 0.1% gelatin solution coating
Procedure: Cell adhesion to tissue culture plastic and chitosan films was quantified via a MTS Assay from Promega (Madison, Wis.) (#G3582) by measuring absorbance after 2.5-hour incubation with the MTS reagent. Cell proliferation and viability were measured by fluorescence, Live/Dead kit (ThermoFisher, #L3224) stained image analysis or CyQuant proliferation assays (ThermoFisher, #C7026). For fluorescence measurements, GFP-expressing DrAMPCs were imaged on a fluorescence microscope over the course of a week using the automated multi-point capture feature. Fluorescence was quantified on Fiji software and normalized to the values determined at the first time-point. For Live/Dead stained image analysis, cells were stained following the kit protocols and imaged on a fluorescence microscope. The images were analyzed with Fiji to quantify the viability and total cell population over time. For CyQuant proliferation assays, cells were plated in 96-well plates for each time-point. At each time-point, media was blotted from the plates and plates were stored at −80° C. After all time-points were collected, plates were thawed to room temperature and stained with CyQuant working solution for 5 minutes. Microplate measurements were performed on a SpectraMax M2 reader from Molecular Devices (San Jose, Calif.). Cell populations were determined from a standard curve. […]

DrAMPCs [9] = assay: Potassium induced contraction; assay type: cell-based, Drosophila melanogaster
Procedure: Cells were differentiated for 5 days before the experiment. High K+ concentration media was produced by dissolving KCl in growth media at the indicated concentration. Cells were imaged on a Phase Contrast microscope before growth media was aspirated and replaced with 600 mM K+ media. Cells were imaged over a duration of 15 minutes.

[10] = both serum-supplemented and serum-free cultures

Compound: Concanavalin A
- cell attachment (DrAMPCs [1]): do not increase cell attachment
- expression of myosin heavy chain in differentiated DrAMPCs (DrAMPCs [1]): may increase

Compound: CC(C)(O)CC[C@@H](O)[C@](C)(O)[C@H]1CC[C@@]2(O)C3=CC(=O)[C@@H]4C[C@@H](O)[C@@H](O)C[C@]4(C)[C@H]3CC[C@]12C [20-hydroxyecdysone]
- concentration able to trigger cell elongation (DrAMPCs [2]; as low as): 40 ng/mL
- differentiation (DrAMPCs [2]; [10]): triggered differentiation
- differentiation of EC405 adapted cells (DrAMPCs [2]; small fraction of cells, 1 μg/mL 20-HE for 5 days): differentiate and form long, multinucleated myotubes that express myosin heavy chain
- generation of myosin heavy chain-expressing cells (DrAMPCs [3]; on plastic and chitosan scaffolds): myosin heavy chain-expressing cells could be generated (albeit at low efficiency)
- fraction of cells on chitosan scaffolds differentiated (DrAMPCs [3]; treated with 20-hydroxyecdysone): < 1%
- differentiation of primary Ms-EPC cells ([4]; differentiated with 20-hydroxyecdysone): multinucleated, striated and express myosin heavy chain
- growth rates versus control groups (DrAMPCs [5]; 0, 500 or 1000 ng/mL 20-HE): did not significantly differ from control groups

Compound: laminin
- cell attachment (DrAMPCs [1]): do not increase cell attachment
- expression of myosin heavy chain in differentiated DrAMPCs (DrAMPCs [1]): may increase

Compound: COC(C)(C)CCC[C@H](C)C/C=C/C(C)=C/C(=O)OC(C)C (racemic) [methoprene]
- average cell length less than control cells (DrAMPCs [2]; 500 ng/mL): 8 μm
- cell elongation (preliminary sign of differentiation) (DrAMPCs [2]; JH treatment): inhibited cell elongation
- recommended exposure [6]: 0.3750 mg/day
- comparison of treatment levels on proliferation (DrAMPCs [5]; 500 ng/mL vs 1,000 ng/mL): the 500 ng/mL treatment level had a larger effect than the 1,000 ng/mL treatment
- proliferation versus control groups (DrAMPCs [5]; 500 or 1,000 ng/mL, day 1 and 5): higher proliferation than control groups
- proliferation (DrAMPCs [5]; [10]): increased proliferation

Compound: poly-lysine
- cell morphology of Ms-EPCs ([4]; poly-lysine coated plastic): more cell elongation, perhaps differentiation

Compound: dextran sulfate
- cell aggregation in agitated suspension (DrAMPCs [7]): sufficient to reduce aggregation and promote a single cell suspension
- cell aggregation in agitated suspension (DrAMPCs [7]; listed as Dextran sulfate): sufficient to reduce cell aggregation

Compound: gelatin
- cell adhesion and growth on gelatin-coated chitosan films (DrAMPCs [8]): did not increase cell adhesion to chitosan films; also recorded: grow in aggregates and were detached from the center of the well during the PBS rinse
- cell adhesion to gelatin coated tissue culture plastic (DrAMPCs [8]): improve cell adhesion

Compound: [Cl-].[K+] [K^+, KCl]
- cell viability after potassium treatment (DrAMPCs [9]): 95%
- cell contraction (DrAMPCs [9]; 300 mM K+): did not contract
- cell contraction (DrAMPCs [9]; 600 mM K+): did contract
- cell fractional shortening, myoblasts (elongated cells) (DrAMPCs [9]; 600 mM K+, image analysis, n=12): 31.6%±14.8%
- cell fractional shortening, spherical proliferative precursor cells (DrAMPCs [9]; 600 mM K+, image analysis, n=14): 1.6%±16.2%

Source: patent publication US20220071233A1, “IN VITRO INSECT MUSCLE AS A NUTRITION SOURCE” (Trustees of Tufts College, priority 2018, published 2022)
